Data taken from patent US20070212677A1, “Identifying off-target effects and hidden phenotypes of drugs in human cells” (Odyssey Thera, Inc., priority 2004, published 2007).
Entries after “also recorded” stand apart in the source; their conditions may differ. Blank lines part the entries; values can stand above or below the compound they belong to. Non-standard residues stand in square brackets, D forms with d. Residues, ends and D or L forms follow the SMILES beside them. Nle = CCCC[C@H](N)C(=O)O

Tests used:
Akt1:Pdk1 = Akt1:Pdk1 PCA; conditions: for Akt:Pdk1 complexes: 90 and 480 minutes after treatment
Akt1:p27 = Akt1:p27 PCA; conditions: for Akt:p27 complexes: 90 and 480 minutes after treatment
cyclinD1:Cdk4 = test: CyclinD1:Cdk4 PCA; format: cell-based, human; conditions: eight hours of treatment
H-Ras:Raf-1 = H-Ras:Raf-1 PCA; format: cell-based, human; conditions: drug treatment, HEK293
beta-Arr2:beta2AR = beta-Arr2:beta2AR (Homo sapiens, UniProt P07550); test: beta-Arr2:beta2AR PCA (with or without ISO); format: cell-based
Pin1:Jun = Pin1:Jun PCA; format: cell-based, human; conditions: for effect on Pin1:Jun assay: statins, FIG. 19B
phospho-CREB = phospho-CREB (Ser133) immunofluorescence, high-content imaging in HEK293 cells; format: cell-based, human
Description: (§1) We assessed the effects of the above-mentioned compounds on the three pathways and used the results to construct pharmacological profiles for the agents. Human cells (HEK293) were treated with drugs and the phosphorylation status of the three downstream proteins was assessed in the absence or presence of epidermal growth factor (EGF). Cells were then fixed and probed with antisera generated against the phosphorylated forms of CREB (S133), ERK1/2 (phospho T*EY*), or phospho Hsp27 (S78/S82). The ERK1/2 antibodies specifically recognize the MAPK/ERK1 and MAPK/ERK2 protein kinases only when they are phosphorylated on Threonine 202 and Tyrosine 204 in the activation loop. […] Changes in the level and sub-cellular localization of a phosphorylated protein following treatment with a drug would indicate a functional connection between the drug and the pathway of interest.
Details of the methods used are as follows. HEK293T cells were seeded in black-walled, poly-lysine coated 96-well plates (Greiner) at a density of 30,000/well. […]
(§2) Images were acquired using a Discovery-1 High Content Imaging System (Molecular Devices). Background fluorescence due to nonspecific binding by the secondary antibody was established with the use of cells that were incubated with BSA/PBS and without primary antibodies. […]

phospho-ERK = phospho-ERK (T202/Y204) immunofluorescence, high-content imaging in HEK293 cells; format: cell-based, human; conditions: for EGF-stimulated ERK phosphorylation: drug 90 min, hEGF during last 5 min
Description: as §1
(§3) Details of the methods used are as follows. HEK293T cells were seeded in black-walled, poly-lysine coated 96-well plates (Greiner) at a density of 30,000/well. After 24 hours, cells in duplicate wells were treated with combinations of different drugs and stimulus as follows: (a) 20 micromolar PD98059, micromolar SB203580, or vehicle alone for 90 minutes; and (b) as for (a), but with 100 ng/ml hEGF added to the cells during the last 5 min of drug treatment. The drugs were purchased from Calbiochem and hEGF was from Roche. Four sets of cells treated as described were prepared. The cells were rinsed once with PBS and fixed with 4% formaldehyde for 10 min. The cells were subsequently permeabilized with 0.25% Triton X-100 in PBS and incubated with 3% BSA for 30 min to block non-specific antibody binding. […]
as §2

phospho-Hsp27 = phospho-Hsp27 immunofluorescence, high-content imaging in HEK293 cells; format: cell-based, human; conditions: for EGF-induced Hsp27 phosphorylation: drug 90 min, hEGF during last 5 min
Description: as §1, §3, §2

PPAR-gamma:SRC-1 = target: T1, PPAR-gamma:SRC-1 (Homo sapiens, UniProt P37231); test: PPAR-gamma:SRC-1 PCA; format: cell-based; conditions: serum-starved HEK293; for effect on PPAR-gamma:SRC-1 PCA: drug 6.5 hours prior to rosiglitazone 1.5 hours, FIG. 24B, C
T1 sequence (P37231 1-477 isoform P37231-2): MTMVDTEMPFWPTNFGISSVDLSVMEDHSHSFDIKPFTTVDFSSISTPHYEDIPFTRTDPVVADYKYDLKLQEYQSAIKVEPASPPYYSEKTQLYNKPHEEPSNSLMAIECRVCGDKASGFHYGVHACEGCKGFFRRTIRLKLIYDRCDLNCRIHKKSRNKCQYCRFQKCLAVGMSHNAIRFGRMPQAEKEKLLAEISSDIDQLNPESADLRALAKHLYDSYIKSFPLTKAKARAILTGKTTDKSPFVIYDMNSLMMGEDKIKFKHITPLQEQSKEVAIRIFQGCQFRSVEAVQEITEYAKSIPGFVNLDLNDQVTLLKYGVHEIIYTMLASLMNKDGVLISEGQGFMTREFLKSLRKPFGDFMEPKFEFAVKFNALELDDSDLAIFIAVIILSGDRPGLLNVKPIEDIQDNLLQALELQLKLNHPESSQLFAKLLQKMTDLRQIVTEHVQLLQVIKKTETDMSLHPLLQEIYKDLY

CDKN1A(p21):Cdc2 = test: Cdc2:p21 PCA; conditions: statins
MAPK1:MKNK1 = test: Mknk1:Mapk1 PCA; conditions: 480 minutes; bar 27
ELK: MAPK1 = test: Elk1:Mapk1 PCA; conditions: 480 minutes; FIG. 17 bar 20
Cofilin:Limk2 = Cofilin:Limk2 PCA; conditions: drug treatment, HEK293

Compound: C=CCNC1=C2C[C@@H](C)C[C@H](OC)[C@H](O)[C@@H](C)/C=C(\C)[C@H](OC(N)=O)[C@@H](OC)/C=C\C=C(/C)C(=O)NC(=CC1=O)C2=O [17-AAG, 17-(allylamino)-17-demethoxygeldanamycin]
Akt:Pdk1 complexes (Akt1:Pdk1): negatively regulated
Akt:p27 complexes (Akt1:p27): negatively regulated

Compound: CCCC[C@@H](C=O)NC(=O)[C@H](CC(C)C)NC(=O)[C@H](CC(C)C)NC(C)=O [ALLN] (Ac-Leu-Leu-[Nle]-aldehyde)
cyclinD1:Cdk4 complexes (cyclinD1:Cdk4): accumulation of this complex in the nucleus

Compound: Cc1ccc(S(=O)(=O)/C=C/C#N)cc1 [BAY 11-7082]
total Akt:Pdk1 complexes (Akt1:Pdk1; HEK293): not
nuclear Akt:p27 complexes (Akt1:p27; HEK293): strongly inhibited
HRas:Raf1 complex (H-Ras:Raf-1): inhibited

effect on βArr2:β2AR assay following isoproterenol stimulation (beta-Arr2:beta2AR; FIG. 19A, 2 μM ISO 30 min): no effect
Compound: CC(C)C[C@H](NC(=O)c1ccc(NCc2cnc[nH]2)cc1-c1cccc2ccccc12)C(=O)O [GGTI-2133]

Compound: CN(CCOc1ccc(C[C@H](Nc2ccccc2C(=O)c2ccccc2)C(=O)O)cc1)c1ccccn1 [GW1929]
effect on Pin1/Jun PCA (Pin1:Jun; PPARγ ligands, 480 minutes, FIG. 18): strong stimulation; also recorded: had an effect

effect on PPAR-gamma:SRC-1 PCA (PPAR-gamma:SRC-1): no appreciable effects
Compound: COc1cccc(-c2cc(=O)c3ccccc3o2)c1N [PD98059]
effect of EGF on phospho-CREB in presence of drug (phospho-CREB; 20 micromolar PD98059 90 min, hEGF during last 5 min): reduced
EGF-stimulated ERK phosphorylation (phospho-ERK): significantly blocked
EGF-induced Hsp27 phosphorylation (phospho-Hsp27): no effect

Compound: COc1cc2ncnc(Nc3cccc(Br)c3)c2cc1OC [PD 153035]
effect on PPAR-gamma:SRC-1 PCA (PPAR-gamma:SRC-1): no appreciable effects

increase of PPAR-gamma:SRC-1 complex (PPAR-gamma:SRC-1; drug 10 micromolar 6.5 hours prior to rosiglitazone 1.5 hours, p<0.0001 vs DMSO): 5 fold
effect on PPAR-gamma:SRC-1 PCA (PPAR-gamma:SRC-1): comparable to c-src siRNA
Compound: CC(C)(C)n1nc(-c2ccc(Cl)cc2)c2c(N)ncnc21 [PP2]

effect on PPAR-gamma:SRC-1 PCA (PPAR-gamma:SRC-1): did not mimic
Compound: Nc1ncnc2c1cnn2-c1ccccc1 [PP3]

Compound: C[S+]([O-])c1ccc(-c2nc(-c3ccc(F)cc3)c(-c3ccncc3)[nH]2)cc1 (stereo not drawn) [SB203580, 4-(4-fluorophenyl)-2-(4-methylsulfinylphenyl)-5-(4-pyridyl)1H-imidazole]
EGF-stimulated ERK phosphorylation (phospho-ERK): no effect
EGF-induced Hsp27 phosphorylation (phospho-Hsp27): blocked

Compound: CC(C)n1c(/C=C/C(O)CC(O)CC(=O)O)c(-c2ccc(F)cc2)c2ccccc21 (stereo not drawn) [fluvastatin]
effect on Pin1:Jun assay (Pin1:Jun): pronounced inhibitory activity; also recorded: inhibited

Compound: CC(C)c1nc(N(C)S(C)(=O)=O)nc(-c2ccc(F)cc2)c1/C=C/[C@@H](O)C[C@@H](O)CC(=O)O [rosuvastatin]
effect on Pin1:Jun assay (Pin1:Jun): little activity
activity on CDKN1A(p21):Cdc2 assay (CDKN1A(p21):Cdc2): activity opposite from the other statins

Compound: EGF: epidermal growth factor; hEGF from Roche
formation of phospho-CREB (phospho-CREB; 100 ng/ml hEGF, 5 min): induced
ERK/MAP kinase phosphorylation (phospho-ERK; 100 ng/ml hEGF, 5 min): highly induced
phospho-Hsp27 (phospho-Hsp27; 100 ng/ml hEGF, 5 min): increased

activity on adrenergic GPCR assays (beta-Arr2:beta2AR; 480 minutes, FIG. 17 bars 3 & 4): no activity
Compound: TRAIL: protein cytokine, a TNF-alpha-family ligand
MAPK1:MKNK1 assay (MAPK1:MKNK1): strongly induced
ELK: MAPK1 assay (ELK: MAPK1): strongly induced

Compound: indirubin-3′-monoxime
Akt:Pdk1 complexes (Akt1:Pdk1): negatively regulated
Akt:p27 complexes (Akt1:p27): negatively regulated
Limk2:cofilin complexes (Cofilin:Limk2): almost completely eliminated
